Experimental data: patent publication US20240158392A1 (Janssen Biotech, Inc., priority 2021, published 2024)

target: SIK2 (Homo sapiens, UniProt Q9H0K1); assay: SIK2 Enzymatic Assay High Version 2 (High ATP); assay type: biochemical; details: not given
Procedure, shortened: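 At room temperature, enzyme (6 nM, 2× final) was preincubated with compound for 30 min, then 6 mM ATP and 400 μM HDAC5tide (both 2× final) were added for 2 h. ADP formed was measured by ADP-Glo Max (2 h reagent, 1 h detection) using luminescence.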

Sequence of SIK2 (Q9H0K1 whole entry, species assumed): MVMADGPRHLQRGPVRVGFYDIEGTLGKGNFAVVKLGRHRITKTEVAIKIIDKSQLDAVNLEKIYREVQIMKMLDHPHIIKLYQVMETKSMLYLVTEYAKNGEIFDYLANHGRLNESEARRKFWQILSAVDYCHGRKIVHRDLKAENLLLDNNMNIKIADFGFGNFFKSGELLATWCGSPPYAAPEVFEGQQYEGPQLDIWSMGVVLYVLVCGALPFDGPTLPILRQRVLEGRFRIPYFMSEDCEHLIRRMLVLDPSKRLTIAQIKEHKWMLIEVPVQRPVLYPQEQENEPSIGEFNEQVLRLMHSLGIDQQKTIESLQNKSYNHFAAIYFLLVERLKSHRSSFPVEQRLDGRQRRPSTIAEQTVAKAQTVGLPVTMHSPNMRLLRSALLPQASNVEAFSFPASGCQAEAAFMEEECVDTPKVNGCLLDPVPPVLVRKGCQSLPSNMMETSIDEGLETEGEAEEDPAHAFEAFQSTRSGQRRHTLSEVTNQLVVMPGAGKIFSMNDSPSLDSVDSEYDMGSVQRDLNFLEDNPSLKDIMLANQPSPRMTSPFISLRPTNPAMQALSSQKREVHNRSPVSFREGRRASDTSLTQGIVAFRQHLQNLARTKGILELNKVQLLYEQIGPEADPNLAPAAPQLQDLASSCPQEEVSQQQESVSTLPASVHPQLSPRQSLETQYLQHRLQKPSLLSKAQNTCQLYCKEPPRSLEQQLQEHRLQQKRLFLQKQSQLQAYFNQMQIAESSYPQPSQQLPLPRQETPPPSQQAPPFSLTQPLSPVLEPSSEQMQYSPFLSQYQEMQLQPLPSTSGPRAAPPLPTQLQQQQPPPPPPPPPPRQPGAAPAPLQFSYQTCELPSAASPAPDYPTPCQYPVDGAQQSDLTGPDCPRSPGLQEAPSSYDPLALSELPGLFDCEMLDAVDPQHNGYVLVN

| SMILES | IC50 [µM] |
| --- | --- |
| [2H]C([2H])([2H])N1CC[C@@H]1COc1cnc(C)cc1-c1ccn2nc(NC(=O)C3CC3)cc2c1 [Example 576, N-[5-[2-methyl-5-[[(2R)-1-(trideuteriomethyl)azetidin-2-yl]methoxy]-4-pyridyl]pyrazolo[1,5-a]pyridin-2-yl]cyclopropanecarboxamide] | 0.0728 |
| CCN1CC[C@H]1COc1cnc(C)cc1-c1ccn2nc(NC(=O)C3CC3)cc2c1 [Example 605, N-[5-[5-[[(2S)-1-ethylazetidin-2-yl]methoxy]-2-methyl-4-pyridyl]pyrazolo[1,5-a]pyridin-2-yl]cyclopropanecarboxamide] | 0.316 |
| Cc1cc(-c2ccn3nc(NC(=O)C4(F)CC4)cc3c2)c(OC[C@H]2CCN2C)cn1 [Example 623, 1-fluoro-N-[5-[2-methyl-5-[[(2R)-1-methylazetidin-2-yl]methoxy]-4-pyridyl]pyrazolo[1,5-a]pyridin-2-yl]cyclopropanecarboxamide] | 0.00644 |
| Cc1cc(-c2ccn3nc(NC(=O)C4CC4(F)F)cc3c2)c(OC[C@H]2CCN2C)cn1 (stereo partly drawn) [Example 624, 2,2-difluoro-N-[5-[2-methyl-5-[[(2R)-1-methylazetidin-2-yl]methoxy]-4-pyridyl]pyrazolo[1,5-a]pyridin-2-yl]cyclopropanecarboxamide] | 0.00329 |
| Cc1cc(Nc2cc3cc(-c4cc(C(F)(F)F)ncc4OC[C@H]4CCN4C)ccn3n2)nc(C)n1 [Example 625, N-(2,6-dimethylpyrimidin-4-yl)-5-[5-[[(2R)-1-methylazetidin-2-yl]methoxy]-2-(trifluoromethyl)-4-pyridyl]pyrazolo[1,5-a]pyridin-2-amine] | 0.73 |
| CC(=O)N1[C@@H]2COC[C@H]1C[C@@H](Oc1cnc(C)cc1-c1ccn3nc(Nc4cc(C)nc(C)n4)cc3c1)C2 [Example 627, 1-((1R,5S,7s)-7-((4-(2-((2,6-dimethylpyrimidin-4-yl)amino)pyrazolo[1,5-a]pyridin-5-yl)-6-methylpyridin-3-yl)oxy)-3-oxa-9-azabicyclo[3.3.1]nonan-9-yl)ethan-1-one] | 0.0651 |
| Cc1cc(-c2ccn3nc(Nc4ccnc(C)n4)cc3c2)c(O[C@H]2C[C@H]3COC[C@@H](C2)N3S(C)(=O)=O)cn1 [Example 630] | 1.18 |

same assay, conditions: enzyme 6 nM, 6 mM ATP and 400 μM HDAC5tide (each 2× final concentration); 30 minutes pre-incubation, 2 hours; ADP-Glo Max luminescence; read-out: SIK2 high ATP IC50 (μM) (Test Example 2)

| SMILES | IC50 [µM] |
| --- | --- |
| N#Cc1cc(-c2ccn3nc(NC(=O)C4CC4)cc3c2)c(OC[C@H]2C[C@@H](NCc3ccccc3)C2)cn1 [Example 599, N-[5-[5-[[3-(benzylamino)cyclobutyl]methoxy]-2-cyano-4-pyridyl]pyrazolo[1,5-a]pyridin-2-yl]cyclopropanecarboxamide] | 0.141 |
| Cc1cc(-c2ccn3nc(Nc4cc(C)nc(C)n4)cc3c2)c(OC[C@@H]2C[C@H](O)CO2)cn1 [Example 606, (3S,5S)-5-[[4-[2-[(2,6-dimethylpyrimidin-4-yl)amino]pyrazolo[1,5-a]pyridin-5-yl]-6-methyl-3-pyridyl]oxymethyl]tetrahydrofuran-3-ol] | 0.1 |
| Cc1cc(-c2ccn3nc(Nc4ccc(C)nn4)cc3c2)c(OCC(C)(C)O)cn1 [Example 612, 2-methyl-1-[[6-methyl-4-[2-[(6-methylpyridazin-3-yl)amino]pyrazolo[1,5-a]pyridin-5-yl]-3-pyridyl]oxy]propan-2-ol] | 0.115 |
| Cc1cc(-c2ccn3nc(Nc4cnc(C(C)(C)C)cn4)cc3c2)c(OCC(C)(C)O)cn1 [Example 613, 1-[[4-[2-[(5-tert-butylpyrazin-2-yl)amino]pyrazolo[1,5-a]pyridin-5-yl]-6-methyl-3-pyridyl]oxy]-2-methyl-propan-2-ol] | 0.1 |
| Cc1cc(-c2ccn3nc(Nc4cc(F)c(C(=O)NC5CC5)c(F)c4)cc3c2)c(O[C@H]2CC[C@H](O)CC2)cn1 [Example 614, N-cyclopropyl-2,6-difluoro-4-[[5-[5-(4-hydroxycyclohexoxy)-2-methyl-4-pyridyl]pyrazolo[1,5-a]pyridin-2-yl]amino]benzamide] | 0.0879 |

Now from value to compound:

| IC50 [µM] | SMILES |
| --- | --- |
| 0.0666 | Cc1cc(-c2ccn3nc(Nc4cc(C)nc(C)n4)cc3c2)c(OC2CC(NS(C)(=O)=O)C2)cn1 (stereo not shown) [Example 579, N-[3-[[4-[2-[(2,6-dimethylpyrimidin-4-yl)amino]pyrazolo[1,5-a]pyridin-5-yl]-6-methyl-3-pyridyl]oxy]cyclobutyl]methanesulfonamide] |
| 0.00198 | Cc1cc(-c2ccn3nc(Nc4cc(C)nc(C)n4)cc3c2)c(O[C@H]2C[C@H](NS(C)(=O)=O)C2)cn1 [Example 580, N-[3-[[4-[2-[(2,6-dimethylpyrimidin-4-yl)amino]pyrazolo[1,5-a]pyridin-5-yl]-6-methyl-3-pyridyl]oxy]cyclobutyl]methanesulfonamide] |
| 0.0838 | Cc1cc(-c2ccn3nc(Nc4cc(C)nc(C)n4)cc3c2)c(O[C@H]2CC[C@H](C#N)CC2)cn1 [Example 581, (1r,4r)-4-((4-(2-((2,6-dimethylpyrimidin-4-yl)amino)pyrazolo[1,5-a]pyridin-5-yl)-6-methylpyridin-3-yl)oxy)cyclohexane-1-carbonitrile] |
| 0.116 | O=C(Nc1cc2cc(-c3cc(C(F)(F)F)ncc3OC[C@@H]3CNCCO3)ccn2n1)C1CC1 [Example 601, N-[5-[5-[[(2S)-morpholin-2-yl]methoxy]-2-(trifluoromethyl)-4-pyridyl]pyrazolo[1,5-a]pyridin-2-yl]cyclopropanecarboxamide] |
| 0.0797 | Cc1cc(-c2ccn3nc(Nc4cc(C)nc(C)n4)cc3c2)c(OC[C@H]2C[C@H](O)CO2)cn1 [Example 609, (3S,5R)-5-[[4-[2-[(2,6-dimethylpyrimidin-4-yl)amino]pyrazolo[1,5-a]pyridin-5-yl]-6-methyl-3-pyridyl]oxymethyl]tetrahydrofuran-3-ol] |
| 0.116 | Cc1cc(-c2ccn3nc(Nc4cnccn4)cc3c2)c(OC[C@H]2CN(C)CCO2)cn1 [Example 611, 5-[2-methyl-5-[[(2R)-4-methylmorpholin-2-yl]methoxy]-4-pyridyl]-N-pyrazin-2-yl-pyrazolo[1,5-a]pyridin-2-amine] |
| 0.00103 | CCN1CC[C@@H](COc2cnc(C#N)cc2-c2ccn3nc(NC(=O)C4CC4)cc3c2)C1 [Example 616, N-[5-[2-cyano-5-[[(3R)-1-ethylpyrrolidin-3-yl]methoxy]-4-pyridyl]pyrazolo[1,5-a]pyridin-2-yl]cyclopropanecarboxamide] |
| 0.0862 | COc1cc(Nc2cc3cc(-c4cc(C)ncc4OCC(C)(C)O)ccn3n2)cc(OC)c1C(=O)NC1CC1 [Example 626, N-cyclopropyl-4-[[5-[5-(2-hydroxy-2-methyl-propoxy)-2-methyl-4-pyridyl]pyrazolo[1,5-a]pyridin-2-yl]amino]-2,6-dimethoxy-benzamide] |
| 0.755 | CC(=O)N1CCO[C@H](COc2cnc(C)cc2-c2ccn3nc(Nc4cc(C)nc(C)n4)cc3c2)C1 [Example 628, 1-[(2S)-2-[[4-[2-[(2,6-dimethylpyrimidin-4-yl)amino]pyrazolo[1,5-a]pyridin-5-yl]-6-methyl-3-pyridyl]oxymethyl]morpholin-4-yl]ethanone] |
| 0.175 | Cc1cc(-c2ccn3nc(Nc4cc(C)nc(C)n4)cc3c2)c(OC[C@@H]2CN(S(C)(=O)=O)CCO2)cn1 [Example 629, N-(2,6-dimethylpyrimidin-4-yl)-5-[2-methyl-5-[[(2S)-4-methylsulfonylmorpholin-2-yl]methoxy]-4-pyridyl]pyrazolo[1,5-a]pyridin-2-amine] |
